Experimental data taken from patent US6620837B1, “Antithrombotic agents” (Eli Lilly and Company, priority 1999, dated 2003).
Where a name gives a salt, the structure may show the parent alone.

Legend:
[1] = Volume of distribution (VD) after oral dosing, pharmacokinetic model; assay type: in vivo, dog; settings: VD=Clearance/K; Clearance=Dose/AUC following oral dosing; compounds of the invention
From the text: Many of the antithrombotic compounds disclosed in the prior art are lipophilic and, therefore, undergo high volumes of distribution from the plasma component and into the tissues. Since thrombin resides in the plasma, this tissue distribution is not preferred. […] Data in Table 1 below confirms that the compounds of the present invention have lower volumes of distribution and, therefore, better pharmacokinetic properties than their corresponding compounds of formula I in which R^d is hydrogen.
The Volume of Distribution (VD) was calculated according to the standard equation:
where Clearance=Dose (ug)/AUC (ug/ml) where AUC is the amount of drug present in plasma following oral dosing and is measured as the area under a curve of drug concentration versus time. K(h^−1) is the elimination rate constant.
Test compound is formulated immediately prior to dosing by dissolving in sterile 0.9 percent saline to a 5 mg/mL preparation. Dogs are given a single 2 mg/kg dose of test compound by oral gavage. Blood samples (4.5 mL) are taken from the cephalic vein at 0.25, 0.5, 0.75, 1, 2, 3, 4 and 6 hours after dosing. Samples are collected in citrated Vacutainer tubes and kept on ice prior to reduction to plasma by centrifugation. Plasma samples are analyzed by HPLC MS. Plasma concentration of test compound is recorded and used to calculate the pharmacokinetic parameters: elimination rate constant, Ke; total clearance, Clt; volume of distribution, VD; time of maximum plasma test compound concentration, Tmax; maximum concentration of test compound of Tmax, Cmax; plasma half-life, t0.5; and area under the curve, A.U.C.; fraction of test compound absorbed, F.

Row | Structure (SMILES) | VD [1] | melting point
1 | NC(=O)CCCOc1cc(-c2sc3ccccc3c2Cc2ccc(OCCN3CCCC3=O)cc2)ccc1OCCN1CCCC1 [Example 8, 2-[3-(4-Amino-4-oxobutoxy)-4-[2-(1-pyrrolidinyl)ethoxy]phenyl]-3-[4-[2-(2-oxopyrrolidin-1-yl)ethoxy]-benzyl]benzo[b]thiophene Oxalate] | 13.53 L/kg | –
2 | O=C([O-])CCCOc1cc(-c2sc3ccccc3c2C(=O)c2ccc(OCCN3CCCC3=O)cc2)ccc1OCCN1CCCC1.[Li+] [Example 11] | 5.13 L/kg | –

Now from value to compound:

Row | VD [1] | melting point | Structure (SMILES)
3 | 0.46 L/kg | > 250 °C | O=C([O-])CCCOc1ccc(-c2sc3ccccc3c2Cc2ccc(OCCN3CCCC3)cc2)cc1C(=O)[O-].[Na+].[Na+] [Example 2, 2-(3-Carboxypropoxy)-5-[3-[4-[2-(1-pyrrolidinyl)ethoxy]benzyl]benzo[b]thiophen-2-yl]benzoic Acid Disodium Salt]
4 | 1.27 L/kg | 253 to 255 °C (dec.) | O=C([O-])c1cc(-c2sc3ccccc3c2Cc2ccc(OCCN3CCCC3)cc2)ccc1OCCN1CCCC1.[Na+] [Example 1, 2-[2-(1-Pyrrolidinyl)ethoxy]-5-[3-[4-[2-(1-pyrrolidinyl)ethoxy]benzyl]benzo[b]thiophen-2-yl]benzoic Acid Sodium Salt]
5 | 3.36 L/kg | – | COC(=O)CCCOc1ccc(-c2sc3ccccc3c2Cc2ccc(OCCN3CCCC3)cc2)cc1C(N)=O [Example 4, 2-(3-Carbomethoxypropoxy)-5-[3-[4-[2-(1-pyrrolidinyl)ethoxy]benzyl]benzo[b]thiophen-2-yl]benzamide Oxalate Salt]
